The record followed here is ChEMBL document CHEMBL5465560, “Selectivity Literature for EUbOPEN Chemogenomic Library” (2024).

In assay [1] the target is T1, Interleukin-1 receptor-associated kinase 3 (Homo sapiens) (UniProt Q9Y616).
T1 sequence (whole entry): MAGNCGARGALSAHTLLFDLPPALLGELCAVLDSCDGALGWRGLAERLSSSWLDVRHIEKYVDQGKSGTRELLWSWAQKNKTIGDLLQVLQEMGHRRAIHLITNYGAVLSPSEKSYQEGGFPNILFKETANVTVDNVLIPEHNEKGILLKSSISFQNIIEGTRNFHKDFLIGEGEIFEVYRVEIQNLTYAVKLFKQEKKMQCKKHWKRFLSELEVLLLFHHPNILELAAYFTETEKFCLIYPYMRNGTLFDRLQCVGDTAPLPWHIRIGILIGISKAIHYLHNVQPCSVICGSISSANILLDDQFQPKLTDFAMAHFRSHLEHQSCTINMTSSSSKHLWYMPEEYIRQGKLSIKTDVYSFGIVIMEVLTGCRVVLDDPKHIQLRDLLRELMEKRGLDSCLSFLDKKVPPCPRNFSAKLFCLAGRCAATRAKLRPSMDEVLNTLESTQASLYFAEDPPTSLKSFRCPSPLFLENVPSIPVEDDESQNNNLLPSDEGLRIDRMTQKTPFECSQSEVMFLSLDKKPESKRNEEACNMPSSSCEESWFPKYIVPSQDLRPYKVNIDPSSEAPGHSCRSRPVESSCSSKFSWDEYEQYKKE
The experiment in a line: Selectivity interaction (LanthaScreen Eu Kinase Binding Assay) EUB0001632a IRAK3. The note with it: at 10 µM. For orientation: Time-resolved FRET reads energy transfer from a long-lived donor to a nearby acceptor.

Assay [2] has as its target Calcium/calmodulin-dependent protein kinase type II subunit alpha (Homo sapiens, UniProt Q9UQM7). Put plainly: Selectivity interaction (KinomeScan (DiscoverX)) EUB0001619a CAMK2A. The note with it: at 1 µM.
In assay [3] the target is Ribosomal protein S6 kinase alpha-5 (Homo sapiens) (UniProt O75582). Put plainly: Selectivity interaction (KinomeScan (DiscoverX)) EUB0001619a RPS6KA5. Particulars: at 1 µM.
The target of assay [4] is Peroxisome proliferator-activated receptor gamma (Homo sapiens) (UniProt P37231). The experiment in a line: Selectivity interaction (Eurofins CEREP Diversity Profile (receptors and ion channels)) EUB0000279b PPARG. Particulars: at 10 µM.
In assay [5] the target is MAP kinase-interacting serine/threonine-protein kinase 2 (Homo sapiens, UniProt Q9HBH9). Put plainly: Selectivity interaction (KinomeScan (DiscoverX)) EUB0000666a MKNK2. Particulars: at 10 µM.
The target in assay [6] is T2, Mitogen-activated protein kinase kinase kinase 5 (Homo sapiens) (UniProt Q99683).
T2 sequence (whole entry): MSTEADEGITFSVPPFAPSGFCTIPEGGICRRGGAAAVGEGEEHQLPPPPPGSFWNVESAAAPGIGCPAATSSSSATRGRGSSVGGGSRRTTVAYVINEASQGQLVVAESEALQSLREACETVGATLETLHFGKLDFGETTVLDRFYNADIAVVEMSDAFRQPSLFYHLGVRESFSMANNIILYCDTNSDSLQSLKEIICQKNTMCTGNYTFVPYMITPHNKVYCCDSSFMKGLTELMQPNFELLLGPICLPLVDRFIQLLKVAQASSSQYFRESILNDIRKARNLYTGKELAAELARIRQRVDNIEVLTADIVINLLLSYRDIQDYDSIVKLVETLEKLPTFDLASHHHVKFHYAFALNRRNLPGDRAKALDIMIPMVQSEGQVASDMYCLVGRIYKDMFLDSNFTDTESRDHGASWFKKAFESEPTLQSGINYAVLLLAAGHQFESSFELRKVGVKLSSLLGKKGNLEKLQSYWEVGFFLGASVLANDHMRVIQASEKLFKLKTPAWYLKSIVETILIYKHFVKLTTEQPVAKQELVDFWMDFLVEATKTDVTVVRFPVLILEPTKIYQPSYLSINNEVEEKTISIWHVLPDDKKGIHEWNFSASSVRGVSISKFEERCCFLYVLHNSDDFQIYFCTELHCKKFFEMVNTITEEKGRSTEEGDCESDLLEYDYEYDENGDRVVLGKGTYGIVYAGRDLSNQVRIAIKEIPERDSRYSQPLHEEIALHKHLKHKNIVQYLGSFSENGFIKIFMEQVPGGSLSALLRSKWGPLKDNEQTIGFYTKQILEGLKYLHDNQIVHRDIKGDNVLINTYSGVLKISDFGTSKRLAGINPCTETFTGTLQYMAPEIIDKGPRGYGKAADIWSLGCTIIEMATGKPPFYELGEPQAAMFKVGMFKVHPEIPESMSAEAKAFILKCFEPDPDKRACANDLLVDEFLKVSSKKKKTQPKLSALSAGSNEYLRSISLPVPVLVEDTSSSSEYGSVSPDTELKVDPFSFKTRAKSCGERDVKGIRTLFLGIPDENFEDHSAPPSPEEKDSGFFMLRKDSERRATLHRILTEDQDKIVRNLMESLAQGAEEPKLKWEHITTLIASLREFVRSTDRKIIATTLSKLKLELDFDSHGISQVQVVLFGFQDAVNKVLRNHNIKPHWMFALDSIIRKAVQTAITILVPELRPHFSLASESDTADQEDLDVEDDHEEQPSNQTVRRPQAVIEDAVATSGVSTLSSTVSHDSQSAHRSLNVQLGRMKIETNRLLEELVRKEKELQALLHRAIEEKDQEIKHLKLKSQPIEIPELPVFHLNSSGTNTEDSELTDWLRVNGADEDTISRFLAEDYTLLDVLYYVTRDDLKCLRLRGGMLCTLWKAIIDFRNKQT
The experiment in a line: Selectivity interaction (ActivX KiNativ screen (kinase selectivity in THP-1 cell lysates)) EUB0000639a MAP3K5. Type of assay: subcellular. Particulars: lysate, at 0.01 µM.

Assay [7] concerns the target RAC-beta serine/threonine-protein kinase (Homo sapiens) (UniProt P31751). The experiment in a line: Selectivity interaction (ProQinase) EUB0000171b AKT2.
The target in assay [8] is Cyclin-dependent kinase 17 (Homo sapiens) (UniProt Q00537). Put plainly: Selectivity interaction (Ambit KINOMEscan and KiNATiv profiling in Jurkat cells) EUB0000090b CDK17. It counts as cell-based. Particulars: at 1 µM.
Assay [9] concerns the target RAF proto-oncogene serine/threonine-protein kinase (Homo sapiens) (UniProt P04049). The note with it: at 10 µM.
Assay [10] concerns the target Histone acetyltransferase KAT2B (Homo sapiens, UniProt Q92831). Put plainly: Selectivity interaction (Bromodomain panel (DSF asssay)) EUB0000270b KAT2B.
Assay [11] addresses Cyclin-dependent kinase 5 (Homo sapiens, UniProt Q00535). The experiment in a line: Selectivity interaction (KinomeScan (DiscoverX)) EUB0000229b CDK5. The note with it: at 10 µM.
Assay [12] addresses Serine/threonine-protein kinase 38 (Homo sapiens) (UniProt Q15208). Put plainly: Selectivity interaction (Kinase panel (KiNativ target engagement assay in Jurkat cells)) EUB0001635a STK38. Type of assay: cell-based. The note with it: Selectivity number of off-targets 0.0, Selectivity number of targets 233.0, Source Knowledge https://www.sciencedirect.com/science/article/pii/S2451945619300674?via%3Dihub, at 1 µM.

Chain of RAC-beta serine/threonine-protein kinase (Homo sapiens) (P31751 whole entry): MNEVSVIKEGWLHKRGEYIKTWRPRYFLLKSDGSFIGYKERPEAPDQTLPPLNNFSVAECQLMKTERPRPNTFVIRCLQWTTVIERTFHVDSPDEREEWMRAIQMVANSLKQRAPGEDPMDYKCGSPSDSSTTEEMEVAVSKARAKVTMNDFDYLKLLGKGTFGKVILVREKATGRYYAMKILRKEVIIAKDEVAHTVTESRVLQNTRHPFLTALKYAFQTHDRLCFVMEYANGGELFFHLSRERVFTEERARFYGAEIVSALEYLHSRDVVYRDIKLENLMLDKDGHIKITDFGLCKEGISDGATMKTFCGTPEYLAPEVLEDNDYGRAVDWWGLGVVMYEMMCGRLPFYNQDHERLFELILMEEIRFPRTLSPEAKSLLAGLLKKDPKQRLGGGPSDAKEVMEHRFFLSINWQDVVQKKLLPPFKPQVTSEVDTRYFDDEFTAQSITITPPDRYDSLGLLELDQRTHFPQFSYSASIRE
Chain of Histone acetyltransferase KAT2B (Q92831 whole entry, looked up): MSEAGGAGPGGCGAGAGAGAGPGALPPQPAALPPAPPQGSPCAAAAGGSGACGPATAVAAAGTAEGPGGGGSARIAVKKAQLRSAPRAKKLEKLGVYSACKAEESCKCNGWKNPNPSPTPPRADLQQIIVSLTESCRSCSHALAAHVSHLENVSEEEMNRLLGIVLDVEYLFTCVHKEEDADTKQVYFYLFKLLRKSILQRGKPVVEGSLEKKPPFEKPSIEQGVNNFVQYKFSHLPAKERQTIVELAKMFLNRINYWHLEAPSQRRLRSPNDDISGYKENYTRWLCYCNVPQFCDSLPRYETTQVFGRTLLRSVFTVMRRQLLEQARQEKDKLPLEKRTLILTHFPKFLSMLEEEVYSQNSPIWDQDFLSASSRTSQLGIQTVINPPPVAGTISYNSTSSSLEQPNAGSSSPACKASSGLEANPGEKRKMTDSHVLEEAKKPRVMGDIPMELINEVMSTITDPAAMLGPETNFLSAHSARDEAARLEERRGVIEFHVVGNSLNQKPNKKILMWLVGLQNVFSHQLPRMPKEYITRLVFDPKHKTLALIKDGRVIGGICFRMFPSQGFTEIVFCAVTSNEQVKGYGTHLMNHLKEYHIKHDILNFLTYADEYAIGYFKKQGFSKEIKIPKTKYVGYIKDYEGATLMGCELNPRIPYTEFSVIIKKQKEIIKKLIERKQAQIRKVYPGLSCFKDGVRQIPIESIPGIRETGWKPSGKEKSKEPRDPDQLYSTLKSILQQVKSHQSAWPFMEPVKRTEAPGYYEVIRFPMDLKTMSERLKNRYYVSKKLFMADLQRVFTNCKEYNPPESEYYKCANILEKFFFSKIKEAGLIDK
Chain of RAF proto-oncogene serine/threonine-protein kinase (Homo sapiens) (P04049 whole entry): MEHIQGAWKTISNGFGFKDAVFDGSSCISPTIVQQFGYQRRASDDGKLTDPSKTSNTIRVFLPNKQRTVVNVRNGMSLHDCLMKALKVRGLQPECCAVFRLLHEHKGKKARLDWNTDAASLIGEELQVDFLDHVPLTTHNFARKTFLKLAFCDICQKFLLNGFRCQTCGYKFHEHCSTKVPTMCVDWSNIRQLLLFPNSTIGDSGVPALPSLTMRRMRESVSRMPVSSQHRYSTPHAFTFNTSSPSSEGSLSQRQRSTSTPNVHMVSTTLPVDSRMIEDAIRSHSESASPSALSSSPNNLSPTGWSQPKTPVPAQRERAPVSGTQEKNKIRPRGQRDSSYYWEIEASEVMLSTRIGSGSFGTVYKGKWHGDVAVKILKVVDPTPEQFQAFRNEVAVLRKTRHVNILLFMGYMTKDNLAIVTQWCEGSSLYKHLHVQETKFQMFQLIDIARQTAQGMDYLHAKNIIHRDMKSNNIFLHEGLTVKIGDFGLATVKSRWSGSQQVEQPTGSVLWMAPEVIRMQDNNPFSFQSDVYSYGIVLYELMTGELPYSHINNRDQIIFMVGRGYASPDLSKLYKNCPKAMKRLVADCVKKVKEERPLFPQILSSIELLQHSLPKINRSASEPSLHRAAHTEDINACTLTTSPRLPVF
Chain of Peroxisome proliferator-activated receptor gamma (Homo sapiens) (P37231 whole entry): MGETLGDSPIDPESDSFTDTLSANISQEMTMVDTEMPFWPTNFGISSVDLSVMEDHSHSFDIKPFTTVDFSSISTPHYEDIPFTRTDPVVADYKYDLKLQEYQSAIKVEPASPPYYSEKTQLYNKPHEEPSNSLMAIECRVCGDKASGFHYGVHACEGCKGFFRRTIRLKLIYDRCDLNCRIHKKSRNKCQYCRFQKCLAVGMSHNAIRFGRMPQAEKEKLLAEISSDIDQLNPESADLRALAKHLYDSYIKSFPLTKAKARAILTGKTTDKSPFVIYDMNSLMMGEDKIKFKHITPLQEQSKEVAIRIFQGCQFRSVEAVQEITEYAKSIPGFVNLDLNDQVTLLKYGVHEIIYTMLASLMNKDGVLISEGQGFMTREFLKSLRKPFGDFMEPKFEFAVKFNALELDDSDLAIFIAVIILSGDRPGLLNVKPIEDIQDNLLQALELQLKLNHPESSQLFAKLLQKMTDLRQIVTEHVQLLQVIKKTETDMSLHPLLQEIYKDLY
Chain of Cyclin-dependent kinase 17 (Homo sapiens) (Q00537 whole entry, looked up): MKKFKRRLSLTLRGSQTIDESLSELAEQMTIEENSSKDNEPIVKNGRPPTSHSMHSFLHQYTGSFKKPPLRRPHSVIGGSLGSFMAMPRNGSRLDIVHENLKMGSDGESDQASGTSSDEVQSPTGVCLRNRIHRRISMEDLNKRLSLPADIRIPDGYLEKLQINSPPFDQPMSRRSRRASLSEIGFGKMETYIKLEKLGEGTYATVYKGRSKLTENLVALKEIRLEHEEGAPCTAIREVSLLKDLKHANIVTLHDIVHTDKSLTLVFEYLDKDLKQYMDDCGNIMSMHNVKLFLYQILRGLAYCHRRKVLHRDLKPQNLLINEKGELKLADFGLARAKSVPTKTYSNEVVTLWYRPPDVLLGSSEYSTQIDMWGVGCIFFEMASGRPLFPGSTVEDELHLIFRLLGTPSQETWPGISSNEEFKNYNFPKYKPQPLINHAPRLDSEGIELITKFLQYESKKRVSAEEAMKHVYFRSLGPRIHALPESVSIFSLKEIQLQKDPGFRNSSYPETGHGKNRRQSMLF
Chain of Cyclin-dependent kinase 5 (Q00535 whole entry, looked up): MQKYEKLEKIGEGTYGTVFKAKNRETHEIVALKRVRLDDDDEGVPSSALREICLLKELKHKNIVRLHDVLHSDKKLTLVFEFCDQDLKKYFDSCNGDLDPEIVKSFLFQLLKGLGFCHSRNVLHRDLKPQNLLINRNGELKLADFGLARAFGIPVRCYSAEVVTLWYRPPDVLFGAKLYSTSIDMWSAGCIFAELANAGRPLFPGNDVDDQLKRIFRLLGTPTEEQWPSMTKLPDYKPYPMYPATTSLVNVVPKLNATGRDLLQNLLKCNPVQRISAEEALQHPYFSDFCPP
Chain of Serine/threonine-protein kinase 38 (Homo sapiens) (Q15208 2-465 limits assumed): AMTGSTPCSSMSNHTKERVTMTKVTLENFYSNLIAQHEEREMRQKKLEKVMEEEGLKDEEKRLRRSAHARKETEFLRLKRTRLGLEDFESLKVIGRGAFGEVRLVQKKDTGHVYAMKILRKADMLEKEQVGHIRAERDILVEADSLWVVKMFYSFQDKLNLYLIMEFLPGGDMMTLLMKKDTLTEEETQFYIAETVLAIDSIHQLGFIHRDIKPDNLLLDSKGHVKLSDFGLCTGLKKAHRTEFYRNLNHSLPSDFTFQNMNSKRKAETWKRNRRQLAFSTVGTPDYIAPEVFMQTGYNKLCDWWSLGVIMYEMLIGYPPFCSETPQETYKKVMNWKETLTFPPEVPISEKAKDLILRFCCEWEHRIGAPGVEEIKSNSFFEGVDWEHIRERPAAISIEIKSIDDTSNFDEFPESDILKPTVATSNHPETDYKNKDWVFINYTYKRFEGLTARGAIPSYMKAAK
Chain of Calcium/calmodulin-dependent protein kinase type II subunit alpha (Q9UQM7 whole entry): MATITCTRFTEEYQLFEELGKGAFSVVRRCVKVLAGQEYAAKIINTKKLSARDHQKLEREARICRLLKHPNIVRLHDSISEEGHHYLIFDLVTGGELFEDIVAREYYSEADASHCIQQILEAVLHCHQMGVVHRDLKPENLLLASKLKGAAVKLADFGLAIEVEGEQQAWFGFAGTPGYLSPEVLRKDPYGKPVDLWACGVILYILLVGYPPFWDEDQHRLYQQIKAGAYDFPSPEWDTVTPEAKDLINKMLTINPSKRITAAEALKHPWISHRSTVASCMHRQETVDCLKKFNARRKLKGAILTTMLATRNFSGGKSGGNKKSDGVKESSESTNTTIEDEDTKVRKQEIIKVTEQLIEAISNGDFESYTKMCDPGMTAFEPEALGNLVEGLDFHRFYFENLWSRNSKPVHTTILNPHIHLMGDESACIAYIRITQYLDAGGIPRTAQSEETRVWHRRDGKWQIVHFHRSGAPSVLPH
Chain of MAP kinase-interacting serine/threonine-protein kinase 2 (Q9HBH9 whole entry, looked up): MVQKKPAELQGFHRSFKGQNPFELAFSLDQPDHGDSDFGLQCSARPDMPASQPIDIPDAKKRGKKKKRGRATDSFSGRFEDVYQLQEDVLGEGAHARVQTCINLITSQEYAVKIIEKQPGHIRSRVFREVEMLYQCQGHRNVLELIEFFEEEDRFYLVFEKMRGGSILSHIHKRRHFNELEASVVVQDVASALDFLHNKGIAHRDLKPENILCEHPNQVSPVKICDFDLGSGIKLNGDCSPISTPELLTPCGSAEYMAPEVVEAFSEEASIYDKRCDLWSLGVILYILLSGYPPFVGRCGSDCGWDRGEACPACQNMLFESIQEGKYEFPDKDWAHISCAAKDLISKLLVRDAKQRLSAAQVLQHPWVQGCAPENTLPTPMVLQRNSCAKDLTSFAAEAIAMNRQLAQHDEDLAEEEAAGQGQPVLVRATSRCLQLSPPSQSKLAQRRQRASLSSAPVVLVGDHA

In the case of `Cn1cc(-n2cnc3c(NCc4nc5cc(Cl)c(Cl)cc5[nH]4)nc(N4CCOCC4)nc32)cn1`, in assay [1], the % of inhibition was -15.9%. For `N#Cc1cccc(-c2c[nH]c3ncnc(N4CCOCC4)c23)c1`, the % of control came to 79% in assay [2] and 100% in assay [3]. With `CC(=O)c1cc(-c2ccccc2OCC2CC2)c2ncccn12`, in assay [4], the % of control was found to be 105%. `O=C(NOC[C@H](O)CO)c1ccc(F)c(F)c1Nc1ccc(I)cc1F` came in with a % of control in assay [5] of 100%. On to `CC[C@@H]1[C@H](F)C(=O)N[C@@H]1COc1nccc2cc(C(N)=O)c(OC)cc12` [ZIMLOVISERTIB], for which the % of inhibition in assay [6] is -5.8%. Consider `C=CC(=O)Nc1cccc(C(=O)Nc2ccc(Nc3cc(-c4[nH]c(SC)nc4C)ccn3)cc2)c1`, for which the % of control in assay [7] (at 1 µM) was 92%; in assay [7] (at 5 µM), 78%. In [8], `CN(C)C/C=C/C(=O)Nc1ccc(C(=O)N2CCCC(Nc3ncc(Cl)c(-c4c[nH]c5ccccc45)n3)C2)cc1` (stereo not drawn) came in with a % of control of 83%. On to `CN(C)CCOc1ccc(-c2nc(-c3ccncc3)c(-c3ccc4c(c3)CC/C4=N\O)[nH]2)cc1`, for which the % of control in assay [9] was found to be 0%.

`Cc1cc(CN)cc(C)c1-c1ncn(C)c1-c1cncn1C`: in assay [10], the dTM is -0.88 K. For `COc1cc(N(C)c2ccnc3ccc(C(F)(F)F)cc23)cc(OC)c1OC`, the % binding in assay [11] is 97%. On to `C=CC(=O)Nc1ccc(C(=O)Nc2[nH]nc3c2CN(C(=O)N[C@H](CN(C)C)c2ccccc2)C3(C)C)cc1`, for which the % of engagement in [12] is -3.5%.
